Assay: PAMPA assay, flux of capsaicin and osthole from buffer solutions with penetration enhancers (Experiments 1 and 2)
Type: in vitro ADME
Method: A. Preparation of Standards:
1 mg/mL stock solutions of polygodial, tetrahydropiperine (Cosmoperine™), osthole, dimethylisosorbide (DMI), Tazmanian Mountain Pepper (TMP), capsaicin and warfarin were prepared in methanol and stored at −20 ° C.
Prisma buffer preparation: Added 1.25 mL of Prisma™ HT buffer to 48.75 mL distilled water. Adjusted to pH 7.0 by adding 0.5 M NaOH dropwise.
50 μg/mL solutions of capsaicin, warfarin and osthole were prepared by adding 50 μL of the 1 mg/mL solutions to 950 μL of MeOH:H2O (50:50).
Donor Well Solutions: Experiment 1—Polygodial, Osthole and Capsaicin with DMI and THP
Preparation of Capsaicin Solutions:
5 μg/mL solution of capsaicin was prepared in Prisma™ buffer solution by adding 5 μL of 1 mg/mL solution of capsaicin to 0.995 mL Prisma™ buffer.
5 μg/mL of capsaicin+5 μg/mL solution of DMI was prepared in Prisma™ buffer solution by adding 5 μL of 1 mg/mL of DMI and 5 μL of 1 mg/mL of capsaicin solution to 0.990 mL Prisma™ buffer.
5 μg/mL of capsaicin+5 μg/mL solution of THP was prepared in Prisma™ buffer solution by adding 5 μL of 1 mg/mL of THP and 5 μL of 1 mg/mL of capsaicin solution to 0.990 mL Prisma™ buffer.
Preparation of Osthole Solutions:
5 μg/mL solution of osthole was prepared in Prisma™ buffer solution by adding 5 μL of 1 mg/mL solution of osthole to 0.995 mL Prisma™ buffer.
5 μg/mL of osthole+5 μg/mL solution of DMI was prepared in Prisma™ buffer solution by adding 5 μL of 1 mg/mL of DMI and 5 μL of 1 mg/mL of osthole solution to 0.990 mL Prisma™ buffer.
5 μg/mL of osthole+5 μg/mL solution of THP was prepared in Prisma™ buffer solution by adding 5 μL of 1 mg/mL of THP and 5 μL of 1 mg/mL of osthole solution to 0.990 mL Prisma™ buffer.
Donor Well Solutions: Experiment 2—Osthole and Capsaicin with Polygodial, TMP and THP
5 μg/mL solution of capsaicin was prepared in Prisma™ buffer solution by adding 5 μL of 1 mg/mL solution of capsaicin to 0.995 mL Prisma™ buffer. (Solution A)
5 μg/mL of capsaicin+5 μg/mL solution of polygodial was prepared in Prisma™ buffer solution by adding 5 μL of 1 mg/mL of polygodial and 5 μL of 1 mg/mL of capsaicin solution to 0.990 mL Prisma™ buffer. (Solution B)
5 μg/mL of capsaicin+5 μg/mL solution of TMP was prepared in Prisma™ buffer solution by adding 5 μL of 1 mg/mL of TMP and 5 μL of 1 mg/mL of capsaicin solution to 0.990 mL Prisma™ buffer. (Solution C)
5 μg/mL of capsaicin+5 μg/mL TMP+5 μg/mL solution of tetrahydropiperine was prepared in Prisma™ buffer solution by adding 5 μL of 1 mg/mL of TMP and 5 μL of 1 mg/mL tetrahydropiperine and 5 μL of 1 mg/mL of capsaicin solution to 0.985 mL Prisma™ buffer. (Solution D)
5 μg/mL of capsaicin+5 μg/mL solution of tetrahydropiperine was prepared in Prisma™ buffer solution by adding 5 μL of 1 mg/mL of tetrahydropiperine and 5 μL of 1 mg/mL of capsaicin solution to 0.990 mL Prisma™ buffer. (Solution E)
5 μg/mL solution of osthole was prepared in Prisma™ buffer solution by adding 5 μL of 1 mg/mL solution of osthole to 0.995 mL Prisma™ buffer. (Solution F)
5 μg/mL of osthole+5 μg/mL solution of polygodial was prepared in Prisma™ buffer solution by adding 5 μL of 1 mg/mL of polygodial and 5 μL of 1 mg/mL of osthole solution to 0.990 mL Prisma™ buffer. (Solution G)
5 μg/mL of osthole+5 μg/mL solution of TMP was prepared in Prisma™ buffer solution by adding 5 μL of 1 mg/mL of TMP and 5 μL of 1 mg/mL of osthole solution to 0.990 mL Prisma™ buffer. (Solution H)
5 μg/mL of osthole+5 μg/mL TMP+5 μg/mL solution of tetrahydropiperine was prepared in Prisma™ buffer solution by adding 5 μL of 1 mg/mL of TMP and 5 μL of 1 mg/mL tetrahydropiperine and 5 μL of 1 mg/mL of osthole solution to 0.985 mL Prisma™ buffer. (Solution I)
5 μg/mL of osthole+5 μg/mL solution of tetrahydropiperine was prepared in Prisma™ buffer solution by adding 5 μL of 1 mg/mL of tetrahydropiperine and 5 μL of 1 mg/mL of osthole solution to 0.990 mL Prisma™ buffer. (Solution J) […]

CC1(C)CCC[C@]2(C)[C@@H](C=O)C(C=O)=CC[C@@H]12 [polygodial]
effect of natural penetration enhancer on capsaicin flux in the PAMPA system (PAMPA): appear to decreased the flux rate of capsaicin

CO[C@H]1CO[C@H]2[C@@H]1OC[C@H]2OC [DMI, Dimethyl Isosorbide]
effect of penetration enhancer on capsaicin flux in the PAMPA system (Experiment 1, vs capsaicin alone over five hours): neither penetration enhancer demonstrated a statistically significant increase in capsaicin flux | effect of penetration enhancer on osthole flux in the PAMPA system (Experiment 1, vs osthole alone over five hours): No observable enhancement

COc1ccc2ccc(=O)oc2c1CC=C(C)C [osthole]
concentration quantified in the acceptor well (alone, donor 5 μg/mL, 2.0 hours): 4 ng/mL | concentration quantified in the acceptor well (alone, donor 5 μg/mL, 2.5 hours): 89 ng/mL | concentration quantified in the acceptor well (alone, donor 5 μg/mL, 5.0 hours): 445 ng/mL | concentration quantified in the acceptor well (with equimass DMI (5 μg/mL), 2.0 hours): 95 ng/mL | concentration quantified in the acceptor well (with equimass DMI (5 μg/mL), 2.5 hours): 232 ng/mL | concentration quantified in the acceptor well (with equimass DMI (5 μg/mL), 5.0 hours): 510 ng/mL | concentration quantified in the acceptor well (with equimass THP (5 μg/mL), 2.0 hours): 261 ng/mL | concentration quantified in the acceptor well (with equimass THP (5 μg/mL), 2.5 hours): 324 ng/mL | concentration quantified in the acceptor well (with equimass THP (5 μg/mL), 5.0 hours): 549 ng/mL

Reference: patent US10898537B2, “Transdermal formulations for delivery of capsaicinoids” (DELIVRA INC., priority 2015, dated 2021)
